According to patent EP4763847A1 (Jiangsu Yahong Meditech Co., Ltd., priority 2023, dated 2025):

What was measured:
[1] = system: HCT116-WT; assay: Cell proliferation inhibition (CellTiter Glo), HCT116-WT cells; format: cell-based; details: cultured 6 days with compound
Procedure: (§1) Test Example 2: Test of cell proliferation inhibition activity of the compounds
(§2) HCT116-WT (ATCC, CCL-247) and HCT116 MTAP KO (Cobioer Nanjing, CBP75002) cells were seeded into white low-transparency 96-well sterile cell culture plates at a density of 250 cells per well, respectively. The culture medium was McCoy's 5A Medium + 10% FBS. The plates were incubated overnight at 37°C with 5% CO2. The cells were treated with compounds gradiently with an initial concentration of 10000 nM, 4-fold dilution, and 8 concentration points. The last two columns were control wells with only DMSO added. The treated cells were continued to be cultured for 6 days. On the seventh day, 50 µL of CellTiter Glo® reagent was added to each well. After reacting on a shaker at room temperature for 10 minutes, the chemiluminescence signal in the plate was detected using the chemiluminescence detection method on a BIOTEK H1 multi-mode plate reader. […] Table 2: IC50 values of compounds for HCT116 MTAP KO/WT cell growth inhibition

[2] = system: HCT116 MTAP KO; assay: Cell proliferation inhibition (CellTiter Glo), HCT116 MTAP KO cells; format: cell-based; details: cultured 6 days with compound
Procedure: as §1, §2

[3] = target: PRMT5-MTA (Homo sapiens, UniProt O14744); assay: biochemical; details: IC50 (nM), PRMT5+MTA enzyme activity inhibition; PRMT5/MET50 protein 1 nM, 5'-deoxy-5'-adenosine 1 µM, SAM 2.5 µM, Histone H4 substrate 5 nM
Chain of PRMT5-MTA (O14744 whole entry): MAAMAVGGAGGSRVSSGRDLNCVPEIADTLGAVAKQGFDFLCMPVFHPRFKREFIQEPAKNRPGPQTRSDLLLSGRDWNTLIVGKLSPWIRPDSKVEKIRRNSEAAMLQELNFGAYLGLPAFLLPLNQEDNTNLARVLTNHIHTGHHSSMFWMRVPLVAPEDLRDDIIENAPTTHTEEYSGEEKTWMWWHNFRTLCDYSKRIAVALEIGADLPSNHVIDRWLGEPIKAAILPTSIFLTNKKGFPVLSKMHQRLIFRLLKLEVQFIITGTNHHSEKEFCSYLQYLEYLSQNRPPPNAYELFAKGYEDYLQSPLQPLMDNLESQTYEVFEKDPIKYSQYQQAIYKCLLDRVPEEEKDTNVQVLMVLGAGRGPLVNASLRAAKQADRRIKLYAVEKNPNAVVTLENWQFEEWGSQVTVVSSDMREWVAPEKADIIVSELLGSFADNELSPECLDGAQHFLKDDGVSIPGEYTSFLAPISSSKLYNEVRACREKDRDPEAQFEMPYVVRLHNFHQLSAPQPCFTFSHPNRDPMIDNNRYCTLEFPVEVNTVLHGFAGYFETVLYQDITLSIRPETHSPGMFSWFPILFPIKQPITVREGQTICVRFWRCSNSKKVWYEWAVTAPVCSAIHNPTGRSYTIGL
Chain of PRMT5-MTA (Q9BQA1 whole entry partner): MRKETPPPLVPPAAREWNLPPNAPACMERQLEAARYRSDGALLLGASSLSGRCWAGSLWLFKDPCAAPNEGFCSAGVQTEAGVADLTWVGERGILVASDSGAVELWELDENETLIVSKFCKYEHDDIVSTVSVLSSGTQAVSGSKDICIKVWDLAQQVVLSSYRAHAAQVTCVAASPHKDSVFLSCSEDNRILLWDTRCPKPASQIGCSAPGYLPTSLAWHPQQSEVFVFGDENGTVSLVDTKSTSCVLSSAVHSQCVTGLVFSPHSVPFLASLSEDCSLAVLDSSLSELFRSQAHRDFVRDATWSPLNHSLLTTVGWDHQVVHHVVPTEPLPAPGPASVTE
Procedure: The enzymatic inhibition activity of the compounds against PRMT5-MTA was detected using the AlphaScreen method. A 1× methyltransferase assay buffer IV (Signalchem) was prepared as a dilution solution for each component of the enzymatic reaction. […] The test compounds were added to all wells except the control wells in a 3-fold dilution series of 10 concentration points starting from 1000 nM using a Tecan D300e. After centrifugation at 1000 rpm for 1 minute in a centrifuge, the plate was incubated at 23°C for 15 minutes. Histone H4 substrate at a final concentration of 5 nM was added to the plate at 4 µL per well. After centrifugation at 1000 rpm for 1 minute in a centrifuge, the plate was reacted in an incubator at 23°C for 45 minutes. Anti-Histone H4 (symmetric dimethyl R3) antibody (Abcam) was pre-incubated with 50 µg/mL AlphaScreen Protein A Acceptor beads (PerkinElmer) at room temperature for 10 minutes, and then added to the plate in a volume of 10 µL per well, followed by reaction at room temperature for 1 hour. 10 µL of 50 µg/mL AlphaScreen Streptavidin Donor beads (PerkinElmer) were added to each well, and reacted at room temperature for 1 hour. The signal values in the plate were detected using the Alpha method on an Envision multi-mode plate reader. The IC50 values of the compounds for PRMT5/MET50 enzyme activity inhibition were calculated in Xlfit 5.0 software.

SMILES | IC50 ([1]; 144 h) [µM] | IC50 ([2]; Homo sapiens, HCT-116, 144 h) [µM] | IC50 [3] [nM] | IC50 [1] [µM] | IC50 [2] [µM]
CNC(N)=Nc1ccc(C(=O)N(Cc2ccc(C(F)(F)F)cn2)C(C)c2ncccc2F)cn1 (racemic) [Compound 58] | 0.971 | 0.034 | 0.4 |  | 
CN/C(N)=N\c1ccc(C(=O)N(Cc2ccc(C(F)(F)F)cn2)C(C)c2ncccc2F)cn1 (single isomer, unassigned) [Compound 65] | 0.569 | 0.03 | 5.4 |  | 
CN/C(N)=N\c1ccc(C(=O)N(Cc2ccc(C(F)(F)F)cn2)C(C)c2ncccc2F)cn1 (single isomer, unassigned) [Compound 66] |  |  | 7.5 |  | 
CNC(N)=Nc1ccc(C(=O)N(Cc2ccc(C(F)(F)F)cn2)C(C)c2ncccn2)cn1 (stereo not shown) [Compound 1] | 2.25 | 0.15 | 1.7 |  | 
COCCNC(N)=Nc1ccc(C(=O)N(Cc2ccc(C(F)(F)F)cn2)C(C)c2ncccn2)cn1 (stereo not shown) [Compound 3] |  |  | 2.9 |  | 
CNC(N)=Nc1ccc(C(=O)N(Cc2ccc(C(F)(F)F)cn2)C(C)c2ncccn2)cc1 (stereo not shown) [Compound 4] |  |  | 1.6 |  | 
CC(c1ncccn1)N(Cc1ccc(C(F)(F)F)cn1)C(=O)c1ccc(N=C(N)N)nc1 (stereo not shown) [Compound 7] | 1.52 | 0.422 | 2.1 |  | 
COC(=O)CNC(N)=Nc1ccc(C(=O)N(Cc2ccc(C(F)(F)F)cn2)C(C)c2ncccn2)cn1 (stereo not shown) [Compound 8] |  |  | 5.5 |  | 
CC(c1ncccn1)N(Cc1ccc(C(F)(F)F)cn1)C(=O)c1ccc(N=C(N)Nc2ccccc2)nc1 (stereo not shown) [Compound 9] |  |  | 7.9 |  | 
CC(c1ncccn1)N(Cc1ccc(C(F)(F)F)cn1)C(=O)c1ccc(N=C(N)NCCN(C)C)nc1 (stereo not shown) [Compound 10] |  |  | 1.3 |  | 
CC(c1ncccn1)N(Cc1ccc(C(F)(F)F)cn1)C(=O)c1ccc(N=C(N)NO)nc1 (stereo not shown) [Compound 12] | 0.21 | 0.055 | 3 |  | 
CCNC(N)=Nc1ccc(C(=O)N(Cc2ccc(C(F)(F)F)cn2)C(C)c2ncccn2)cn1 (stereo not shown) [Compound 14] | 3.55 | 0.707 | 1.3 |  | 
CC(C)NC(N)=Nc1ccc(C(=O)N(Cc2ccc(C(F)(F)F)cn2)C(C)c2ncccn2)cn1 (stereo not shown) [Compound 15] |  |  | 2.3 |  | 
CC(c1ncccn1)N(Cc1ccc(C(F)(F)F)cn1)C(=O)c1ccc(N=C(N)NCC(=O)O)nc1 (stereo not shown) [Compound 18] | 2.03 | 0.868 |  |  | 
CC(c1ncccn1)N(Cc1ccc(C(F)(F)F)cn1)C(=O)c1ccc(N=C(N)NCCO)nc1 (stereo not shown) [Compound 19] |  |  | 0.8 |  | 
CNC(=Nc1ccc(C(=O)N(Cc2ccc(C(F)(F)F)cn2)C(C)c2ncccn2)cn1)NC (stereo not shown) [Compound 21, 6-((bis(methyl-amino)methylene)amino)-N-(1-(pyrimidin-2-yl)ethyl)-N-((5-(trifluoromethyl)pyridin-2-yl)methyl)nicotinamide] |  |  | 4.7 |  | 
COC=C(N)Nc1ccc(C(=O)N(Cc2ccc(C(F)(F)F)cn2)C(C)c2ncccn2)cn1 (stereo not shown) [Compound 23] |  |  | 5.8 |  | 
CNC(N)=Nc1ccc(C(=O)N(Cc2ccc(C(F)(F)F)cn2)C(C)c2cccc(C)c2)cn1 (stereo not shown) [Compound 31, 6-((amino(methylamino)methylene)amino)-N-(1-(m-tolyl)ethyl)-N-((5-(trifluoromethyl)pyridin-2-yl)methyl)nicotinamide] | 3.36 | 0.302 | 3.4 |  | 
CNC(N)=Nc1ccc(C(=O)N(Cc2ccc(C(F)(F)F)cn2)C(C)c2ccccc2)cn1 (stereo not shown) [Compound 32] | 1.89 | 0.114 | 1.5 |  | 
CNC(N)=Nc1ccc(C(=O)N(Cc2ccc(C(F)(F)F)cn2)C(C)C2CC2)cn1 (stereo not shown) [Compound 33] | 4 | 0.279 | 1 |  | 
CNC(N)=Nc1ccc(C(=O)N(Cc2ccc(C(F)(F)F)cn2)C(C)c2ccccn2)cn1 (stereo not shown) [Compound 34] | 3.48 | 0.182 | 1.8 |  | 
CNC(N)=Nc1ccc(C(=O)N(Cc2ccc(C(F)(F)F)cn2)C2CCC2)cn1 [Compound 35] |  |  | 2 |  | 

SMILES | IC50 ([1]; 144 h) [µM] | IC50 ([2]; Homo sapiens, HCT-116, 144 h) [µM] | IC50 [3] [nM] | IC50 [1] [µM] | IC50 [2] [µM]
CNC(N)=Nc1ccc(C(=O)N(Cc2ccccc2)Cc2ccc(C(F)(F)F)cn2)cn1 [Compound 36] | 5.36 | 0.521 | 3.6 |  | 
CNC(N)=Nc1ccc(C(=O)N(Cc2ccc(C(F)(F)F)cn2)C(C)c2ccc(F)cc2)cn1 (stereo not shown) [Compound 37] | 2.7 | 0.454 |  |  | 
CNC(N)=Nc1ccc(C(=O)N(Cc2ccc(C(F)(F)F)cn2)C(C)c2ccncc2)cn1 (stereo not shown) [Compound 39] |  |  | 1.2 |  | 
CNC(N)=Nc1ccc(C(=O)N(Cc2ccc(C(F)(F)F)cn2)C(C)c2ccc(C)cc2)cn1 (stereo not shown) [Compound 40] |  |  | 1.9 |  | 
CNC(N)=Nc1ccc(C(=O)N(Cc2ccc(C(F)(F)F)cn2)C(C)c2ccccc2C)cn1 (stereo not shown) [Compound 41] | 3.71 | 0.931 | 2.5 |  | 
CNC(N)=Nc1ccc(C(=O)N(Cc2ccc(C(F)(F)F)cn2)C(C)c2ccccc2F)cn1 (stereo not shown) [Compound 42] | 0.982 | 0.061 | 1.6 |  | 
CNC(N)=Nc1ccc(C(=O)N(Cc2ccc(C(F)(F)F)cn2)C(C)c2cccc3ccccc23)cn1 (stereo not shown) [Compound 43] |  |  | 1.6 |  | 
CNC(N)=Nc1ccc(C(=O)N(Cc2ccc(C(F)(F)F)cn2)C2CCCc3cccnc32)cn1 (stereo not shown) [Compound 44] |  |  | 2.6 | 0.493 | 0.017
CNC(N)=Nc1ccc(C(=O)N(Cc2ccc(C(F)(F)F)cn2)c2cccc3cccnc23)cn1 [Compound 45, 6-((amino(methylamino)methylene)amino)-N-(quinolin-8-yl)-N-((5-(trifluoromethyl)pyridin-2-yl)methyl)nicotinamide] | 0.275 | 0.024 | 1 |  | 
CNC(N)=Nc1ccc(C(=O)N(C)C2COc3cc(C(F)(F)F)ccc32)cn1 (stereo not shown) [Compound 54, 6-((amino(methylamino)methylene)amino)-N-methyl-N-(6-(trifluoromethyl)-2,3-dihydrobenzofuran-3-yl)nicotinamide] |  |  | 2 |  | 
CNC(N)=Nc1ccc(C(=O)N(C)C2COc3cc(-c4ccncc4)ccc32)cn1 (stereo not shown) [Compound 55, 6-((amino(methylamino)methylene)amino)-N-methyl-N-(6-(pyridin-4-yl)-2,3-dihydrobenzofuran-3-yl)nicotinamide] |  |  | 5 |  | 
CNC(N)=Nc1ccc(C(=O)N2C[C@@H](C)CC[C@@H]2c2ccc(F)cc2)cn1 [Compound 57, 2-(5-((2R,5S)-2-(4-fluorophenyl)-5-methylpiperidine-1-carbonyl)pyridin-2-yl)-1-methyl guanidine] |  |  | 1.8 |  | 
CNC(N)=Nc1ccc(C(=O)N(Cc2ccc(C(F)(F)F)cn2)C2CCCc3cccnc32)cn1 (stereo not shown) [Compound 59] | 0.413 | 0.018 |  |  | 
CNC(N)=Nc1ccc(C(=O)N(Cc2ccc(-c3cncs3)cn2)[C@H](C)c2ccccc2F)cn1 [Compound 72] | 0.696 | 0.054 |  |  | 
CNC(N)=Nc1ccc(C(=O)N(Cc2ccc3sc(NC)nc3c2)[C@H](C)c2ccccc2F)cn1 [Compound 80] |  |  | 7.8 |  | 
CCC(c1ccccc1F)N(Cc1ccc(C(F)(F)F)cn1)C(=O)c1ccc(N=C(N)NC)nc1 (stereo not shown) [Compound 84] | 0.428 | 0.025 |  |  | 
CNC(N)=Nc1ccc(C(=O)N(Cc2cccnc2)[C@H](C)c2ccccc2F)cn1 [Compound 100] |  |  | 7.6 |  | 
CNC(N)=Nc1ccc(C(=O)N(CC2CCCCO2)C(C)c2ccccc2F)cn1 (stereo not shown) [Compound 103] |  |  | 4.2 |  | 
CN/C(N)=N\c1ccc(C(=O)N(Cc2ccc(C(F)(F)F)cn2)C(C)c2cccc3nccnc23)cn1 (stereo not shown) [Compound 120, (Z)-6-((amino(methylamino)methylene)amino)-N-(1-(quinoxalin-5-yl)ethyl)-N-((5-(trifluoromethyl)pyridin-2-yl)methyl)nicotinamide] |  |  | 1 |  | 
CN/C(N)=N\c1ccc(C(=O)N(Cc2ccc(C(F)(F)F)cn2)C2CCCc3nccnc32)cn1 (stereo not shown) [Compound 122, (Z)-6-((amino(methylamino)methylene)amino)-N-(5,6,7,8-tetrahydroquinoxalin-5-yl)-N -((5-(trifluoromethyl)pyridin-2-yl)methyl)nicotinamide] | 1.93 | 0.192 |  |  | 
CNC(N)=Nc1ccc(C(=O)N(Cc2ccc(C(F)(F)F)cc2F)C(C)c2cccc3nccnc23)cn1 (stereo not shown) [compound 121] |  |  | 4.4 |  | 
